We go through one compound from patent US11919858B2, “Aminonapthoquinone compounds and pharmaceutical composition for blocking ubiquitination-proteasome system in diseases” (Calgent Biotechnology Co., Ltd., priority 2015, dated 2024).

One series addresses ITCH (Homo sapiens, UniProt Q96J02). As to the kind of experiment: Blocking of ITCH self-ubiquitination, in vivo assay. Conditions: concentration of 0.5 um and 5 um, FIG. 2. The series is classed as cell-based. From the text:
MPT0L056 of the invention was used to test the blocking of ITCH self-ubiquitination. […] [Reference for in vitro assay: Scialpi F, Malatesta M, Peschiaroli A, Rossi M, Melino G, and Bernassola F. Itch self-polyubiquitylation occurs through lysine-63 linkages. Biochem Pharmacol. 2008 Dec. 1; 76(11):1515-21. Reference for in vivo assay: Chang L, Kamata H, Solinas G, Luo J L, Maeda S, Venuprasad K, Liu Y C, and Karin M. The E3 ubiquitin ligase itch couples JNK activation to TNFalpha-induced cell death by inducing c-FLIP(L) turnover. Cell. 2006 Feb. 10; 124(3):601-131

For series [1], the system named is human RPMI8226 multiple myeloma. Nature of the series: Human RPMI8226 multiple myeloma xenograft in female nude mice (TMU-RPMI8226-e0001). The series is classed as in vivo. An excerpt:
The 42-day study utilized five groups of mice (n=6) bearing established human PRMI8226 multiple myeloma with mean volumes of ˜85 mm^3 on D1. […] (FIG. 3).
In general terms: A xenograft is tissue or cells of one species grown in another, often human tumour cells in immunodeficient mice.

Setting [2] is: MPT0L056 25 mg/kg p.o. once every day for 42 days.
[3] abbreviates: MPT0L056 50 mg/kg p.o. once every day for 42 days.

Sequence of ITCH (Q96J02 whole entry, species assumed): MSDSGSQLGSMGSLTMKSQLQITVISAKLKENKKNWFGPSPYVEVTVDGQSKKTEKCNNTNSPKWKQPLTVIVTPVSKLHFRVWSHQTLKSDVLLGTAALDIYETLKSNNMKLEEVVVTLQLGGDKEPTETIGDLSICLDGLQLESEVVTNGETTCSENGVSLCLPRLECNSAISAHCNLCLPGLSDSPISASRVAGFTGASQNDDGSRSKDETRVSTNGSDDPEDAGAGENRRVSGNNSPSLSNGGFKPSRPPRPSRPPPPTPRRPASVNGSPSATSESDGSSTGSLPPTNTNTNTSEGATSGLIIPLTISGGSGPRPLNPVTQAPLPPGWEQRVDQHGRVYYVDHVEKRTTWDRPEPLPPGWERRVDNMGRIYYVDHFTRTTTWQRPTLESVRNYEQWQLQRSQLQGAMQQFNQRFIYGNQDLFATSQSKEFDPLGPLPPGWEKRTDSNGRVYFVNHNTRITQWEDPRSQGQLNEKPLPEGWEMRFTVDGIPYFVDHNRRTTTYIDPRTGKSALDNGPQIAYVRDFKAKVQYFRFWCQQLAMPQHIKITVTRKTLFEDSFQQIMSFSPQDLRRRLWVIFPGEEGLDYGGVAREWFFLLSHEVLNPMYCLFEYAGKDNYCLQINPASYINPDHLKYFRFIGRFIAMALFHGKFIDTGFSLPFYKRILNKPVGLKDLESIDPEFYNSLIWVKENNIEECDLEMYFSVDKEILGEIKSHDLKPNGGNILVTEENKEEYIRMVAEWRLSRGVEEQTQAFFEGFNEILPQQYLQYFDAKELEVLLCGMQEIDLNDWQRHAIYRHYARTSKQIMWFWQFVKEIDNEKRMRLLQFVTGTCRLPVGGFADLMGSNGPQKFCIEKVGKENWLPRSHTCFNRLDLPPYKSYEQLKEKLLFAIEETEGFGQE

As to `O=C(Nc1ccncc1)c1ccc(CNC2=C(Cl)C(=O)c3ccccc3C2=O)cc1` [MPT0L056], the “blocking of ITCH's in vivo self-ubiquitination” value on ITCH was “blocks ITCH's in vivo self-ubiquitination”. In addition, in series [1] (setting [2]), the antitumor activity entry is listed as “produced significant antitumor activity” and the “mice with complete regression (CR)” value is given as “Two of six”. Also, in series [1] (setting [3]), the antitumor activity entry is recorded as “produced significant antitumor activity” and the “mice with complete regression (CR)” value is recorded as “Two of six”. In addition, the body weight change entry in series [1] (MPT0L056 50 and 25 mg/kg, all doses tested, FIG. 4) was “without significantly body weight loss”.
